Reference: article PMC11649115, “In vitro safety evaluation of dopamine D3R antagonist, R-VK4-116, as a potential medication for the treatment of opioid use disorder” (PLOS ONE, 2024)
Where “and” joins values, the source holds several entries; their conditions need not be identical. Equal entries are not always repeated. Where two headings read alike, the source gives them in different places.

Columns and labels:
CYP3A4 mRNA = assay: CYP induction, mRNA, primary cultured human hepatocytes; type: in vitro ADME; details: for fold induction at 48 h, 0.01 µM / fold induction at 48 h, 0.1 µM / fold induction at 48 h, 1 µM / fold induction at 48 h, 3 µM / fold induction at 48 h, 5 µM / fold induction at 48 h, 10 µM: human, primary cultured human hepatocytes, read-out: CYP3A4 mRNA Fold Induction (fold of vehicle control)
HepG2 cells [1] = assay: Cytotoxicity MTT assay in HepG2; type: cell-based; details: 72-hr, 10 to 100 μM
HepG2 cells [2] = assay: Phospholipidosis and steatosis, high content screening; type: cell-based; parameters: key to Cell count, Trend (↑↓) / Nuclear size, Trend (↑↓) / DNA structure, Trend (↑↓) / Phospholipidosis, Trend (↑↓) / Steatosis, Trend (↑↓): ↑: increasing trend of response; ↓: decreasing trend of response
[3] = as above; type: cell-based; parameters: key to Cell count, Trend (↑↓) / Nuclear size, Trend (↑↓) / DNA structure, Trend (↑↓) / Phospholipidosis, Trend (↑↓) / Steatosis, Trend (↑↓): ↑: increasing trend of response; ↓: decreasing trend of response; details: human, HepG2 cells
CYP2C8 = target: T1, CYP2C8 (Homo sapiens, UniProt P10632); assay: CYP inhibition in human liver microsomes; details: human liver microsomes
T1 sequence (P10632 1-490): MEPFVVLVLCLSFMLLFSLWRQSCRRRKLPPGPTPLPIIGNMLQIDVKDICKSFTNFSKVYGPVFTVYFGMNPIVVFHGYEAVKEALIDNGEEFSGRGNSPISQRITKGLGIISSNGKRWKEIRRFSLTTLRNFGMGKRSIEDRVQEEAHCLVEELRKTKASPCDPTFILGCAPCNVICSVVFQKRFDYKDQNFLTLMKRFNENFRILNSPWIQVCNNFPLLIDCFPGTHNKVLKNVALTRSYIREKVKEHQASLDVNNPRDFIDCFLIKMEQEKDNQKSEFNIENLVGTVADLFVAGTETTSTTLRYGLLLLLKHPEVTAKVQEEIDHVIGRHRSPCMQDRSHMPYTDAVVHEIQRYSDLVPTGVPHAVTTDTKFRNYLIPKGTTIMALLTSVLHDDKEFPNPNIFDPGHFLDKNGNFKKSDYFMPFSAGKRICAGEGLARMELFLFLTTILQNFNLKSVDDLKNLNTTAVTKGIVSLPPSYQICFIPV

## CCc1cc(Cl)c(OC)c(N2CCN(CC(O)CCNC(=O)c3cc4ccccc4[nH]3)CC2)c1 (stereo not shown) [R-VK4-116, N-(4-(4-(3-chloro-5-ethyl-2-methoxyphenyl)piperazin-1-yl)-3-hydroxybutyl)-1H-indole-2-carboxamide]
CYP3A4 mRNA; 5 μM, two days, average of hepatocyte lots
  induction in CYP3A4 mRNA, average: 2.9 fold
CYP3A4 mRNA; Lot 336, 0.01 μM
  fold induction at 48 h, 0.01 µM: 1.1 ± 0.079
CYP3A4 mRNA; Lot 336, 0.1 μM
  fold induction at 48 h, 0.1 µM: 1.1 ± 0.18
CYP3A4 mRNA; Lot 336, 1 μM
  fold induction at 48 h, 1 µM: 2.3 ± 0.15
CYP3A4 mRNA; Lot 336, 3 μM
  fold induction at 48 h, 3 µM: 3.7 ± 0.56
CYP3A4 mRNA; Lot 336, 5 μM
  fold induction at 48 h, 5 µM: 4 ± 0.78
CYP3A4 mRNA; Lot 336, 10 μM
  fold induction at 48 h, 10 µM: 3.7 ± 0.2
CYP3A4 mRNA; Lot 348B, 0.01 μM
  fold induction at 48 h, 0.01 µM: 1.1 ± 0.05
CYP3A4 mRNA; Lot 348B, 0.1 μM
  fold induction at 48 h, 0.1 µM: 1.2 ± 0.081
CYP3A4 mRNA; Lot 348B, 1 μM
  fold induction at 48 h, 1 µM: 1.3 ± 0.12
CYP3A4 mRNA; Lot 348B, 3 μM
  fold induction at 48 h, 3 µM: 1.8 ± 0.17
CYP3A4 mRNA; Lot 348B, 5 μM
  fold induction at 48 h, 5 µM: 2 ± 0.27
CYP3A4 mRNA; Lot 348B, 10 μM
  fold induction at 48 h, 10 µM: 1.9 ± 0.13
CYP3A4 mRNA; Lot 399, 0.01 μM
  fold induction at 48 h, 0.01 µM: 1.2 ± 0.2
CYP3A4 mRNA; Lot 399, 0.1 μM
  fold induction at 48 h, 0.1 µM: 1.2 ± 0.11
CYP3A4 mRNA; Lot 399, 1 μM
  fold induction at 48 h, 1 µM: 1.8 ± 0.12
CYP3A4 mRNA; Lot 399, 3 μM
  fold induction at 48 h, 3 µM: 2.6 ± 0.14
CYP3A4 mRNA; Lot 399, 5 μM
  fold induction at 48 h, 5 µM: 2.7 ± 0.4
CYP3A4 mRNA; Lot 399, 10 μM
  fold induction at 48 h, 10 µM: 2.3 ± 0.39
HepG2 cells [1]
  decrease in HepG2 cell viability compared with the solvent control (MTT): 40–50%
HepG2 cells [2]
  Phospholipidosis, Trend (↑↓): ↑
  Steatosis, Trend (↑↓): ↑
HepG2 cells [2]; (NS) = not statistically significant
  Steatosis, MEC: 14.2 μM and 14.2 (NS) μM
[3]; # AC50 greater than the maximum surviving concentration, (NS) = not statistically significant, read-out: Steatosis, AC50
  AC50: > 100 µM
[3]; read-out: Cell count, AC50
  AC50: > 100 µM
[3]; read-out: DNA structure, AC50
  AC50: > 100 µM
[3]; read-out: Nuclear size, AC50
  AC50: > 100 µM
[3]; read-out: Phospholipidosis, AC50
  AC50: 10.7 µM
CYP2C8; up to 100 μM
  CYP2C8 inhibition: did not inhibit CYP significantly
CYP2C8; human, probe paclitaxel
  activity at 20 min, 0.1 µM: 85.9 ± 18.2%
  activity at 20 min, 0.3 µM: 68.2 ± 2.8%
  activity at 20 min, 1 µM: 70.5 ± 7.1%
  activity at 20 min, 3 µM: 95.7 ± 11.2%
  activity at 20 min, 10 µM: 89.8 ± 19.7%
  activity at 20 min, 30 µM: 75.8 ± 4.5%
  activity at 20 min, 60 µM: 75.3 ± 6.4%
  activity at 20 min, 100 µM: 80.6 ± 15.2%
